Test results as given in US9708323B2, “Tricyclic compounds as alpha-7 nicotinic acetylcholine receptor ligands” (BRISTOL-MYERS SQUIBB COMPANY, priority 2014, dated 2017).

Each compound was assayed against T1, α-7 nicotinic ACh receptor ion channel expressed in HEK 293 cells (Rattus norvegicus, UniProt Q05941) (assay: Ca2+-sensitive, fluorescence-based assay for α-7 nicotinic acetylcholine receptor channel function in mammalian cells (FLIPR)). Conditions: Table 1, agonist Ca2+ flux, read-out: FLIPR α7 (EC50).
T1 construct: expressed in transfected cells
Type: cell-based
Experimental: II) A Ca^2+-Sensitive, Fluorescence-Based Assay α-7 for Nicotinic Acetylcholine Receptor Channel Function in Mammalian Cells (“FLIPR”). Summary:
Lead compounds are evaluated for agonist activity at α-7, α3β4, α4αβ2, and α1β1δ1ε sub-types of nicotinic ACh receptor ion channels expressed in mammalian HEK 293 cells. Agonist potency and efficacy values are determined from kinetic fluorescence Ca^2+ influx measurements made using a 384 well FLIPR (Fluorescence Image Plate Reader). The utility of fluorescent indicators for measuring changes in intracellular divalent cation concentrations, particularly Ca^2+, for drug discovery endeavors is well documented (Rudiger, R., et al., Nature Reviews, 2003, 4:579-586; Gonzalez J. E., et al., Receptors and Channels, 2002, 8:283-295). In this assay, channel expressing HEK cell lines seeded in 384 well assay plates are loaded with a membrane permeant fluorescent Ca^2+ indicator dye, whose 510 nm green emission signal increases in response to elevation of intracellular Ca^2+ concentration. The basal fluorescence from the cells is monitored in real time, followed by the acute addition of test compounds. If the compound is an agonist at any of the non-selective cation channels, the latter open and allow the movement of extracellular Ca^2+ ions into the cell cytoplasm, where they bind to the Ca^2+ indicator dye, and produce an increase in fluorescence output signal, which is detected by a cooled CCD imaging camera.
Reagents: The acetomethoxy (AM) ester of the Ca^2+ indicator dye Fluo-4 was obtained from InVitrogen, (Carlsbad, Calif.). Acetylcholine and all buffer constituents were purchased from Sigma Chemical Company, St. Louis, Mo. G418 and Minimal Essential Medium were purchased from InVitrogen Life Technologies, Carlsbad, Calif. Fetal bovine serum was purchased from (InVitrogen, Carlsbad, Calif.).
HEK-293 cells were grown in Minimal Essential Medium containing 10% (v/v) fetal bovine serum at 37° C. in a 5% CO2 incubator. HEK-293 cells stably expressing the ion channels were grown in the same medium with the addition of 500 μg/ml G418.
HEK-293 cells expressing the ion channels of interest were plated in 384 well, black-walled, clear-bottomed, poly-D-lysine coated plates at a density of ˜20,000 cells/well in 20 μl of Minimal Essential Medium containing 10% (v/v) fetal bovine serum and incubated for 2 days at 29° C. in a 5% CO2 incubator. Prior to assay, cells were loaded with the Fluo-4 AM ester. Cell loading was accomplished by removing the culture medium and replacing it with 30 μl/well of the AM ester of the dye (5 μM) mixed with Hanks Balanced Salt Solution (#14175-095) containing 20 mM HEPES, 2.5 mM probenecid, 0.5 mM CaCl2, 1 mM MgCl2 and 10 μM atropine. Dye loading was allowed to proceed for 90 minutes at room temperature at which time the dye loading solution was removed and replaced with 40 μl/well of Hanks buffer. Cells loaded with dye were loaded onto a FLIPR384 (Molecular Devices, Sunnyvale, Calif.). Fluo-4 dye was excited using the 488 nm line of an argon laser. Emission was filtered using a 540+/−30 nm bandpass filter. For evaluation of the effects of test compounds using the Ca^2+ flux assay, compounds to be tested were provided in assay ready plates. For nicotinic receptor ion channel expressing cells, the assay was initiated by the addition of 20 μl/well of Hanks buffer containing test compounds. For all assays, data were collected at 1 Hz for 10 seconds (baseline), at which time the compound containing stimulus buffers are added, and further measurements collected at 0.33 Hz for 3 min.
The statistical robustness of the nicotinic receptor Ca^2+ flux assays is determined from blanks and totals wells. The totals wells define maximal channel activation for each compound test plate (Maximum efficacious dose of acetylcholine), and the blanks wells which contain matched DMSO only, define zero channel activation. […]

T1 sequence (Q05941 23-502): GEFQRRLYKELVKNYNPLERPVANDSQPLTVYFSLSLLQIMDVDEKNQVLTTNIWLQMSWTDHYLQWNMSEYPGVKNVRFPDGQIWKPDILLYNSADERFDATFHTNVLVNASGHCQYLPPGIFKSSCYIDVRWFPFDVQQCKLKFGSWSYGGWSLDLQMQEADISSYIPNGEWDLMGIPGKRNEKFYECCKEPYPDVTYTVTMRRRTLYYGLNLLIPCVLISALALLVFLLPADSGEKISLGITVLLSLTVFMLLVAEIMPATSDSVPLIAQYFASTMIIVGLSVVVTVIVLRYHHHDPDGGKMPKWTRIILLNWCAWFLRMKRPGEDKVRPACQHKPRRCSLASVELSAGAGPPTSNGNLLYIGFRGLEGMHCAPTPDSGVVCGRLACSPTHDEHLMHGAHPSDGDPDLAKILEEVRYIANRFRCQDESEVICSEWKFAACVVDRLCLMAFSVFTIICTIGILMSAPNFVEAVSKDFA

Structure (SMILES) | EC50
O=C(c1sc2cc(F)ccc2c1Cl)N1CC2CN3CCC2C1C3 (stereo not drawn) [Example 52] | > 100 µM
O=C(c1cc(Br)c(Br)o1)N1CC2CN3CCC2C1C3 (stereo not drawn) [Example 57] | > 100 µM
O=C(c1noc2ccccc12)N1CC2CN3CCC2C1C3 (stereo not drawn) [Example 81] | 8 µM
O=C(c1cc2ccc(Cl)cc2s1)N1CC2CN3CCC2C1C3 (stereo not drawn) [Example 71] | > 100 µM
O=C(c1cc2c(C(F)(F)F)cccc2s1)N1CC2CN3CCC2C1C3 (stereo not drawn) [Example 72] | > 100 µM
O=C(c1ccns1)N1CC2CN3CCC2C1C3 (stereo not drawn) [Example 78] | > 100 µM
Cc1c(C(=O)N2CC3CN4CCC3C2C4)sc2ccc(Cl)cc12 (stereo not drawn) [Example 86] | > 100 µM
O=C(c1sccc1Cl)N1CC2CN3CCC2C1C3 (stereo not drawn) [Example 26] | > 100 µM
Cc1cc(C(=O)N2CC3CN4CCC3C2C4)on1 (stereo not drawn) [Example 64] | > 100 µM
O=C(c1cc(Cl)ccn1)N1CC2CN3CCC2C1C3 (stereo not drawn) [Example 37] | > 100 µM
O=C(c1cc(-c2ccccc2)no1)N1CC2CN3CCC2C1C3 (stereo not drawn) [Example 62] | > 100 µM
O=C(c1c[nH]c2ncc(Br)cc12)N1CC2CN3CCC2C1C3 (stereo not drawn) [Example 80] | 38 µM
O=C(c1cc(-c2ccc(Br)cc2)cs1)N1CC2CN3CCC2C1C3 (stereo not drawn) [Example 69] | > 100 µM
O=C(c1sc2cccc(F)c2c1Cl)N1CC2CN3CCC2C1C3 (stereo not drawn) [Example 85] | > 100 µM
CC(C)c1cc(C(=O)N2CC3CN4CCC3C2C4)on1 (stereo not drawn) [Example 58] | > 100 µM
O=C(c1onc2ccccc12)N1CC2CN3CCC2C1C3 (stereo not drawn) [Example 82] | > 100 µM
O=C(c1c[nH]c2ncccc12)N1CC2CN3CCC2C1C3 (stereo not drawn) [Example 55] | > 100 µM
O=C(c1n[nH]c2ccccc12)N1CC2CN3CCC2C1C3 (stereo not drawn) [Example 2, (hexahydro-3,6-methanopyrrolo[2,3-c]pyridin-1(2H)-yl)(1H-indazol-3-yl)methanone] | 0.25 µM
O=C(c1cccc(Cl)n1)N1CC2CN3CCC2C1C3 (stereo not drawn) [Example 35] | > 100 µM
O=C(c1cc(-c2ccc(Cl)cc2)cs1)N1CC2CN3CCC2C1C3 (stereo not drawn) [Example 84] | > 100 µM
O=C(c1cc2cccc(Cl)c2s1)N1CC2CN3CCC2C1C3 (stereo not drawn) [Example 1, (7-chlorobenzo[b]thiophen-2-yl)(hexahydro-3,6-methanopyrrolo[2,3-c]pyridin-1(2H)-yl)methanone] | 1.7 µM
O=C(c1ccccc1)N1CC2CN3CCC2C1C3 (stereo not drawn) [Example 3, (hexahydro-3,6-methanopyrrolo[2,3-c]pyridin-1(2H)-yl)(phenyl)methanone] | > 100 µM
O=C(c1sc2ccccc2c1Cl)N1CC2CN3CCC2C1C3 (stereo not drawn) [Example 67] | > 100 µM
O=C(c1cc(Br)no1)N1CC2CN3CCC2C1C3 (stereo not drawn) [Example 56] | > 100 µM
Cc1ccc2c(Cl)c(C(=O)N3CC4CN5CCC4C3C5)sc2c1 (stereo not drawn) [Example 68] | > 100 µM
O=C(c1cc(-c2ccccc2)cs1)N1CC2CN3CCC2C1C3 (stereo not drawn) [Example 66] | > 100 µM
O=C(c1cc(Br)cs1)N1CC2CN3CCC2C1C3 (stereo not drawn) [Example 59] | > 100 µM

Same assay, conditions: Table 2, agonist Ca2+ flux, read-out: FLIPR α7 (EC50)

Structure (SMILES) | EC50
Cn1cc(C(=O)N2C[C@H]3C[N@]4CC[C@H]3[C@H]2C4)c2ccccc21 [Example 91, ((3R,3aR,6S,7aS)-hexahydro-3,6-methanopyrrolo[2,3-c]pyridin-1(2H)-yl)(1-methyl-1H-indol-3-yl)methanone] | > 100 µM
O=C(c1cc2cccc(Cl)c2s1)N1C[C@H]2C[N@]3CC[C@H]2[C@H]1C3 [Example 96, 7-chlorobenzo[b]thiophen-2-yl((3R,3aR,6S,7aS)-hexahydro-3,6-methanopyrrolo[2,3-c]pyridin-1(2H)-yl)methanone] | > 100 µM
O=C(c1n[nH]c2ccccc12)N1C[C@H]2C[N@]3CC[C@H]2[C@H]1C3 [Example 88, ((3R,3aR,6S,7aS)-hexahydro-3,6-methanopyrrolo[2,3-c]pyridin-1(2H)-yl)(1H-indazol-3-yl)methanone] | 0.39 µM
O=C(c1n[nH]c2ccc(Cl)cc12)N1C[C@H]2C[N@]3CC[C@H]2[C@H]1C3 [Example 92, ((3R,3aR,6S,7aS)-hexahydro-3,6-methanopyrrolo[2,3-c]pyridin-1(2H)-yl)(5-chloro-1H-indazol-3-yl)methanone] | 0.7 µM
O=C(c1cc2ccccc2s1)N1C[C@H]2C[N@]3CC[C@H]2[C@H]1C3 [Example 89, benzo[b]thiophen-2-yl((3R,3aR,6S,7aS)-hexahydro-3,6-methanopyrrolo[2,3-c]pyridin-1(2H)-yl)methanone] | 18 µM

Same assay, conditions: Table 3, agonist Ca2+ flux, read-out: FLIPR α7 (EC50)

Structure (SMILES) | EC50
COc1ccc2[nH]nc(C(=O)N3C[C@@H]4C[N@@]5CC[C@@H]4[C@@H]3C5)c2c1 [Example 110, ((3S,3aS,6R,7aR)-hexahydro-3,6-methanopyrrolo[2,3-c]pyridin-1(2H)-yl)(5-methoxy-1H-indazol-3-yl)methanone] | > 100 µM
O=C(c1n[nH]c2cc(Cl)ccc12)N1C[C@@H]2C[N@@]3CC[C@@H]2[C@@H]1C3 [Example 109, ((3S,3aS,6R,7aR)-hexahydro-3,6-methanopyrrolo[2,3-c]pyridin-1(2H)-yl)(6-chloro-1H-indazol-3-yl)methanone] | > 100 µM
O=C(c1n[nH]c2ccc(Cl)cc12)N1C[C@@H]2C[N@@]3CC[C@@H]2[C@@H]1C3 [Example 103, ((3S,3aS,6R,7aR)-hexahydro-3,6-methanopyrrolo[2,3-c]pyridin-1(2H)-yl)(5-chloro-1H-indazol-3-yl)methanone] | > 100 µM
Cn1cc(C(=O)N2C[C@@H]3C[N@@]4CC[C@@H]3[C@@H]2C4)c2ccccc21 [Example 102, ((3S,3aS,6R,7aR)-hexahydro-3,6-methanopyrrolo[2,3-c]pyridin-1(2H)-yl)(1-methyl-1H-indol-3-yl)methanone] | > 100 µM
O=C(c1cc2cccc(Cl)c2s1)N1C[C@@H]2C[N@@]3CC[C@@H]2[C@@H]1C3 [Example 108, 7-chlorobenzo[b]thiophen-2-yl((3S,3aS,6R,7aR)-hexahydro-3,6-methanopyrrolo[2,3-c]pyridin-1(2H)-yl)methanone] | > 100 µM
COc1cccc2[nH]nc(C(=O)N3C[C@@H]4C[N@@]5CC[C@@H]4[C@@H]3C5)c12 [Example 107, ((3S,3aS,6R,7aR)-hexahydro-3,6-methanopyrrolo[2,3-c]pyridin-1(2H)-yl)(4-methoxy-1H-indazol-3-yl)methanone] | 30 µM
O=C(c1n[nH]c2ccc(Br)cc12)N1C[C@@H]2C[N@@]3CC[C@@H]2[C@@H]1C3 [Example 105, ((3S,3aS,6R,7aR)-hexahydro-3,6-methanopyrrolo[2,3-c]pyridin-1(2H)-yl)(5-bromo-1H-indazol-3-yl)methanone] | > 100 µM
COc1ccc2c(C(=O)N3C[C@@H]4C[N@@]5CC[C@@H]4[C@@H]3C5)n[nH]c2c1 [Example 104, ((3S,3aS,6R,7aR)-hexahydro-3,6-methanopyrrolo[2,3-c]pyridin-1(2H)-yl)(6-methoxy-1H-indazol-3-yl)methanone] | > 100 µM
O=C(c1cc2c(Cl)cccc2s1)N1C[C@@H]2C[N@@]3CC[C@@H]2[C@@H]1C3 [Example 106, 4-chlorobenzo[b]thiophen-2-yl((3S,3aS,6R,7aR)-hexahydro-3,6-methanopyrrolo[2,3-c]pyridin-1(2H)-yl)methanone] | > 100 µM

Same assay, conditions: Table 4, agonist Ca2+ flux, read-out: FLIPR α7 (EC50)

EC50 | Structure (SMILES)
0.47 µM | O=C(c1n[nH]c2ccccc12)N1CC2CCN3CCC2C1C3 (stereo not drawn) [Example 114, (hexahydro-1H-1,6-methanopyrrolo[3,4-d]azepin-2(7H)-yl)(1H-indazol-3-yl)methanone]
